Tested on: 435261-313-R-J1-PDC tumor spheroid viability
Assay: Anticancer human tumor 435261-313-R-J1-PDC patient-derived colon adenocarcinoma cell line growth inhibition [PI3K]
Details: spheroids with HUVEC and MSC; for IC50: curve of first compound; for viability, T/C: stronger effect = lower value
Method in brief: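 Targeted small molecules plus PI3K inhibitors, half-log dose series from Cmax (default top 10 microM), were applied to heterotypic spheroids of cancer cells with HUVEC and MSCs. Viability indicated growth inhibition.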

[1] = second compound 0.0316 µM, first compound 0.0316 µM
[2] = second compound 0.0316 µM, first compound 0.1 µM
[3] = second compound 0.0316 µM, first compound 0.316 µM
[4] = second compound 0.0316 µM, first compound 1 µM
[5] = second compound 0.0316 µM, first compound 3.16 µM
[6] = second compound 0.0316 µM, first compound 10 µM
[7] = second compound 0.1 µM, first compound 0.0316 µM
[8] = second compound 0.1 µM, first compound 0.1 µM
[9] = second compound 0.1 µM, first compound 0.316 µM
[10] = second compound 0.1 µM, first compound 1 µM
[11] = second compound 0.1 µM, first compound 3.16 µM
[12] = second compound 0.1 µM, first compound 10 µM
[13] = second compound 0.316 µM, first compound 0.0316 µM
[14] = second compound 0.316 µM, first compound 0.1 µM
[15] = second compound 0.316 µM, first compound 0.316 µM
[16] = second compound 0.316 µM, first compound 1 µM
[17] = second compound 0.316 µM, first compound 3.16 µM
[18] = second compound 0.316 µM, first compound 10 µM
[19] = second compound 1 µM, first compound 0.0316 µM
[20] = second compound 1 µM, first compound 0.1 µM
[21] = second compound 1 µM, first compound 0.316 µM
[22] = second compound 1 µM, first compound 1 µM
[23] = second compound 1 µM, first compound 3.16 µM
[24] = second compound 1 µM, first compound 10 µM
[25] = second compound 3.16 µM, first compound 0.0316 µM
[26] = second compound 3.16 µM, first compound 0.1 µM
[27] = second compound 3.16 µM, first compound 0.316 µM
[28] = second compound 3.16 µM, first compound 1 µM
[29] = second compound 3.16 µM, first compound 3.16 µM
[30] = second compound 3.16 µM, first compound 10 µM
[31] = second compound 10 µM, first compound 0.0316 µM
[32] = second compound 10 µM, first compound 0.1 µM
[33] = second compound 10 µM, first compound 0.316 µM
[34] = second compound 10 µM, first compound 1 µM
[35] = second compound 10 µM, first compound 3.16 µM
[36] = second compound 10 µM, first compound 10 µM
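Also: spheroids exposed to compounds for 7 days.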

SMILES: C[C@@H](NC(=O)c1ncnc(N)c1Cl)c1ncc(C(=O)Nc2cc(C(F)(F)F)c(Cl)cn2)s1 + CC(Nc1ncnc2nc[nH]c12)c1cc2cccc(Cl)c2c(=O)n1-c1ccccc1
- IC50 (second compound 0.0316 µM): > 10000 nM
- IC50 (second compound 0.1 µM): > 10000 nM
- IC50 (second compound 0.316 µM): > 10000 nM
- IC50 (second compound 1 µM): > 10000 nM
- IC50 (second compound 3.16 µM): > 10000 nM
- IC50 (second compound 10 µM): 3520 nM
- viability, T/C [1]: 158%
- viability, T/C [2]: 182%
- viability, T/C [3]: 124%
- viability, T/C [4]: 145%
- viability, T/C [5]: 153%
- viability, T/C [6]: 118%
- viability, T/C [7]: 128%
- viability, T/C [8]: 172%
- viability, T/C [9]: 153%
- viability, T/C [10]: 144%
- viability, T/C [11]: 147%
- viability, T/C [12]: 104%
- viability, T/C [13]: 112%
- viability, T/C [14]: 150%
- viability, T/C [15]: 135%
- viability, T/C [16]: 145%
- viability, T/C [17]: 150%
- viability, T/C [18]: 64.8%
- viability, T/C [19]: 146%
- viability, T/C [20]: 146%
- viability, T/C [21]: 147%
- viability, T/C [22]: 175%
- viability, T/C [23]: 144%
- viability, T/C [24]: 96.1%
- viability, T/C [25]: 119%
- viability, T/C [26]: 141%
- viability, T/C [27]: 111%
- viability, T/C [28]: 148%
- viability, T/C [29]: 91.4%
- viability, T/C [30]: 44.6%
- viability, T/C [31]: 72.8%
- viability, T/C [32]: 131%
- viability, T/C [33]: 88.7%
- viability, T/C [34]: 93.2%
- viability, T/C [35]: 51%
- viability, T/C [36]: 39.9%

SMILES: CC1(C)CCC(Nc2ncc(C(F)(F)F)c(-c3c[nH]c4c(P(C)(C)=O)c(C#N)ccc34)n2)CN1 (stereo unspecified) + Cc1nc(NC(=O)N2CCCC2C(N)=O)sc1-c1ccnc(C(C)(C)C(F)(F)F)c1
- IC50 (second compound 0.0316 µM): < 31.6 nM
- IC50 (second compound 0.1 µM): < 31.6 nM
- IC50 (second compound 0.316 µM): < 31.6 nM
- IC50 (second compound 1 µM): < 31.6 nM
- IC50 (second compound 3.16 µM): < 31.6 nM
- IC50 (second compound 10 µM): < 31.6 nM
- viability, T/C [1]: 47.1%
- viability, T/C [2]: 45.9%
- viability, T/C [3]: 39.3%
- viability, T/C [4]: 38.1%
- viability, T/C [5]: 33.7%
- viability, T/C [6]: 0.64%
- viability, T/C [7]: 48.5%
- viability, T/C [8]: 36.8%
- viability, T/C [9]: 41.9%
- viability, T/C [10]: 38.3%
- viability, T/C [11]: 32.4%
- viability, T/C [12]: 0.39%
- viability, T/C [13]: 35.5%
- viability, T/C [14]: 33.5%
- viability, T/C [15]: 27.3%
- viability, T/C [16]: 29.3%
- viability, T/C [17]: 25.4%
- viability, T/C [18]: 0.33%
- viability, T/C [19]: 23.3%
- viability, T/C [20]: 22.3%
- viability, T/C [21]: 26.7%
- viability, T/C [22]: 27.3%
- viability, T/C [23]: 14.8%
- viability, T/C [24]: 0.53%
- viability, T/C [25]: 14.8%
- viability, T/C [26]: 17.2%
- viability, T/C [27]: 14.7%
- viability, T/C [28]: 14.2%
- viability, T/C [29]: 6.95%
- viability, T/C [30]: 0.84%
- viability, T/C [31]: 7.65%
- viability, T/C [32]: 5.94%
- viability, T/C [33]: 5.07%
- viability, T/C [34]: 6.14%
- viability, T/C [35]: 2.6%
- viability, T/C [36]: 1.22%

SMILES: Cn1nccc1Nc1nccc(-c2ccn(C(CO)c3ccc(Cl)c(F)c3)c(=O)c2)n1 (stereo unspecified) + Cc1nc(NC(=O)N2CCCC2C(N)=O)sc1-c1ccnc(C(C)(C)C(F)(F)F)c1
- IC50 (second compound 0.0316 µM): 147 nM
- IC50 (second compound 0.1 µM): 119 nM
- IC50 (second compound 0.316 µM): < 31.6 nM
- IC50 (second compound 1 µM): < 31.6 nM
- IC50 (second compound 3.16 µM): < 31.6 nM
- IC50 (second compound 10 µM): < 31.6 nM
- viability, T/C [1]: 62.5%
- viability, T/C [2]: 58.2%
- viability, T/C [3]: 37%
- viability, T/C [4]: 24.5%
- viability, T/C [5]: 20.9%
- viability, T/C [6]: 11.4%
- viability, T/C [7]: 53.1%
- viability, T/C [8]: 54.8%
- viability, T/C [9]: 32.4%
- viability, T/C [10]: 18.5%
- viability, T/C [11]: 17.9%
- viability, T/C [12]: 10.8%
- viability, T/C [13]: 36%
- viability, T/C [14]: 36.4%
- viability, T/C [15]: 21.3%
- viability, T/C [16]: 12.9%
- viability, T/C [17]: 14%
- viability, T/C [18]: 7.34%
- viability, T/C [19]: 19.1%
- viability, T/C [20]: 18.9%
- viability, T/C [21]: 11.6%
- viability, T/C [22]: 8%
- viability, T/C [23]: 7.78%
- viability, T/C [24]: 3.02%
- viability, T/C [25]: 13.6%
- viability, T/C [26]: 10.8%
- viability, T/C [27]: 9.01%
- viability, T/C [28]: 4.15%
- viability, T/C [29]: 3.68%
- viability, T/C [30]: 1.12%
- viability, T/C [31]: 7.41%
- viability, T/C [32]: 4.45%
- viability, T/C [33]: 2.55%
- viability, T/C [34]: 1.89%
- viability, T/C [35]: 0.52%
- viability, T/C [36]: 0.24%

— PubChem BioAssay AID1963976 (Molecular Pharmacology Branch, DTP, NCI, 2024)
